Results published in US20260097111A1, “ETHER LIPIDS FOR HYPERACTIVATION OF MAMMALIAN DENDRITIC CELLS” (priority 2022, published 2026).
Entries after “also recorded” stand apart in the source; their conditions may differ. Read-outs that look alike come from different tables or passages of the source.

Assays:
[1] = test system: human monocyte-derived dendritic cells (moDCs); assay: IL-1β secretion by human moDCs treated with lipid and R848; type: cell-based; conditions: for IL-1β secretion: human moDCs
Description: (§1) Human monocytes were isolated from Leukopaks purchased from Miltenyi using the StraightFrom Leukopak CD14 microbead kit (Miltenyi). Isolations were completed following manufacturer's instructions. Monocytes were then aliquoted and frozen in fetal bovine serum containing 10% dimethyl sulfoxide. For studies with monocyte-derived dendritic cell (moDC) cultures, monocytes were thawed and cultured in RPMI medium containing 10% FBS, 50 units/mL penicillin, […] streptomycin, 2 mM L-glutamine, 1 mM sodium pyruvate, […] beta-mercaptoethanol, 10 mM HEPES, and Gibco MEM non-essential amino acids (R10 media). To differentiate monocytes into moDCs, recombinant human GM-CSF (50 ng/mL) and IL-4 (25 ng/mL) were added to R10 media. Cells were cultured for 6 days with GM-CSF and IL-4, with an additional cell feeding with R10 containing GM-CSF and IL-4 on day 3.
Six days after differentiation, moDC were collected and counted. Cells were plated into 96-well flat-bottom plates at 1×10^5 cells/well. Cells were treated with or without 1 μg/mL R848 (final) and with or without a hyperactivating lipid (or vehicle control). In some experiments, MCC950, an inhibitor of the NLRP3 inflammasome, was added at a final concentration of 10 uM. In some experiments, nigericin, which causes NLRP3 inflammasome activation and subsequent pyroptosis, was used as a positive control at 20 uM. Cells and stimuli totaled a final volume of […].
Lipid stocks were then further diluted in PBS to treat cells.
(§2) After an overnight incubation, cells and culture supernatant were used for downstream readouts. One hundred and fifty microliters of cell supernatant were collected. Viability was measured using the CellTiter-Glo assay (Promega) which measures ATP content from cells. Fifty microliters of CellTiter-Glo reagent were added to 50 μL of cells. Luminescence was quantified on a SpectraMax m5e plate reader using an integration time of 500 milliseconds. Viability data were set relative to control conditions where cells were treated with only R848. To measure IL-1β secretion, the human IL-1β Lumit kit (Promega) was used to assay cell culture supernatant. Culture supernatant samples were incubated with enzyme-linked antibodies in a 384-well plate for 1 hour before addition of luminescent substrate. Samples were measured for luminescence with an integration time of 500 milliseconds. IL-1β concentrations of samples was determined by interpolation from a standard curve using 4-parameter logistic regression analysis. Studies were performed on three different human donor samples, and each biological condition was tested in triplicate. Graphed data represent means from each donor.
as §1, with “Human moDC Production. Human” for “Human”, “(Miltenyi) according to the” for “(Miltenyi). Isolations were completed following”, “To differentiate” for “For studies with”, “pyruvate, and” for “pyruvate,”, “beta-mercaptoethanol” for “beta-mercaptoethanol, 10 mM HEPES, and Gibco MEM non-essential amino acids”
Hyperactivating Lipid Formulation—Compound 10. Lipid stocks were formulated at 200 μg/mL lipid in 5% Kolliphor P407 (KP407) in PBS.

[2] = Solubility observations; type: physicochemical
[3] = test system: human moDCs; assay: Cell viability of human moDCs (CellTiter-Glo); type: cell-based; conditions: human moDCs, 20.6 μM lipid; FIG. 19
Description: as §2
Measurement of Cytokine Secretion and Cell Viability. After an overnight incubation, cells and culture supernatant were used for downstream readouts. One hundred and fifty microliters of cell culture supernatant were collected. Viability was measured using the CellTiter-Glo assay (Promega) which measures ATP content from cells. Fifty microliters of CellTiter-Glo reagent were added to 50 μL of cells. Luminescence was quantified on a SpectraMax m5e plate reader using an integration time of 500 milliseconds. Viability data were set relative to control conditions where cells were treated with only R848. To measure IL-1β secretion, the human IL-1β Lumit kit (Promega) was used. […] Samples were measured for luminescence with an integration time of 500 milliseconds. IL-1β concentrations of samples was determined by interpolation from a standard curve using 4-parameter logistic regression analysis. […]

[4] = test system: human moDCs; assay: IL-6 secretion by human moDCs; type: cell-based
[5] = test system: human moDC; assay: IL-1β ELISA, human moDC treated with R848, DGP, MCC950; type: cell-based; conditions: only R848 2.85 μM, donor HD94
Description: Monocyte Isolation, Storage, and Differentiation into moDC. Human leukapheresis blood products were freshly obtained from AllCells via same day or overnight shipping at 4° C. Miltenyi StraightFrom Leukopak CD14 MicroBead isolation kits were used according to manufacturer instructions to isolate CD14+ monocytes. Briefly, leukopaks ranging in quantity from 5×10^9 to 1×10^10 total nucleated cells were evenly aliquoted into 50 mL conical tubes. Cells were incubated with CD14 microbeads and then loaded on the MultiMACS using the program “Possel2”. After washing out the negative population, CD14+ cells were eluted from the columns and counted. An aliquot of monocytes was used to stain for purity of cells to ensure that isolated live cells were […] CD11c+CD14+ by flow cytometry. […] Vials were placed in CoolCell freezing containers and placed in a −80° C. freezer and stored no longer than 1 week. Frozen cells were transferred for long-term storage to the vapor phase of a liquid nitrogen freezer until use.
To differentiate monocytes into moDC, vials of cells were taken out of the liquid nitrogen freezer and quickly thawed in a 37° C. water bath. Cells were diluted ten-fold in warmed R10++ media containing 50 units/mL benzonase. R10++ media was composed of RPMI 1640 media containing 10% fetal bovine serum, 50 units/mL penicillin, […] streptomycin, 2 mM L-glutamine, 1 mM sodium pyruvate, […] beta-mercaptoethanol, 10 mM HEPES, and 1% Gibco MEM non-essential amino acids. After gentle mixing by inversion of tubes, cells were incubated at 37° C. for 10 min. Cells were pelleted at 400×g for 5 min and supernatant was aspirated. Cells were resuspended in R10++ media and counted on the MoxiGo by diluting an aliquot in PBS containing a final concentration of 2.5 μg/mL propidium iodide. Cells were plated in T75 culture flasks at 3-6×10^7 cells per flask in a total of 20 mL R10++ media containing a final concentration of 50 ng/mL GM-CSF and 25 ng/mL IL-4. Three days after the start of culture, an additional 10 mL R10++ containing 50 ng/mL GM-CSF and 25 ng/mL IL-4 was added to each flask.
Six days after start of differentiation. R10++ media containing cells were placed into 50 mL conical tubes. Flasks were washed with an additional 10 mL PBS and also collected. […] Cells were resuspended in R10++ media and counted on the MoxiGo by diluting an aliquot in PBS containing a final concentration of 2.5 μg/mL propidium iodide. Cells were then adjusted to 1×10^6 cells/mL in R10++ media.
moDC Treatment. Human moDC were plated at 1×10^5 cells/well in 96-well flat-bottom tissue culture plates in R10++ media by adding 100 μL of cells per well. To each well, a 25 μL solution of R10++ containing 400 ng/mL GM-CSF and 200 ng/mL IL-4 was added.
Lyophilized R848 stocks were prepared as described above and frozen at −80° C. An aliquot of frozen R848 was thawed and further diluted to 11.4 μM in R10++ (4 μg/mL R848). Cell culture conditions receiving R848 treatment had 50 μL added to wells. For wells not receiving R848, 50 μL R10++ was added to wells. Lyophilized MCC950 was prepared as described above and stored at −20° C. MCC950 was further diluted to 40 uM in a prepared R10++ solution containing 11.4 μM R848. Cells receiving R848 and MCC950 treatment had 50 μL added to wells. Final concentrations of R848 and MCC950 in a total 200 μL volume were respectively 2.85 μM and 10 μM.
A4.44% solution of KP407 dissolved in sterile, distilled water was prepared at a temperature of 4° C. […]

[6] = Serum chemokines and cytokines after SC injection; type: in vivo, mice; conditions: mouse, in vivo, sc
Description: Lipid Preparation. […] Lipids were used for chemical injections or DC treatment within one hour of their preparation.
Subcutaneous (SC) Injection. Mice were placed under Isoflurane for a few min for anesthesia. Tubes containing the chemicals were vortexed for 30 seconds, then loaded with a 1 mL Sub-Q syringe.
Blood Collection. Mice were placed under Isoflurane for approximately 10 min for anesthesia. Using a 21G needle, mice were gently poked through the skin to the submandibular space to induce bleeding. Five-Six drops were collected in a mini collect K2EDTA blood collection tube. Blood samples were transported back to Corner Therapeutics lab on ice. The blood was then centrifuged at 1500×g for 5 min. After centrifugation, blood was collected into a 96-well round bottom plate and stored at −80° C.
Measurement of Serum Chemokines and Cytokines. Secreted cytokines were measured in the supernatant by cytokine bead array using the LEGENDplex™ Mouse Murine Proinflammatory Chemokine, Murine Cytokine Release Syndrome Legendplex and LEGENDplex™ Mouse Cytokine Panel 2 (Biolegend) according to the manufacturer's protocol. Data were collected using a Quanteon Novocyte flow cytometer and analyzed using the cloud-based software provided by Biolegend.

[7] = test system: human moDCs; conditions: for IFNα2: R848 stimulation, FIG. 33B
[8] = 41.25 μM lipid with R848, FIG. 17

For “1-behenoyl-2-hydroxy-sn-glycero-3-phosphocholine [22:0 lyso PC, reference compound]”, the IL-1β secretion [1, 8] was “significant increase in IL-1β”, the IL-1β secretion ([1]; 41.25 μM lipid with R848 vs vehicle control, FIG. 8) was “produced significantly more IL-1β” and the IL-1β secretion ([1]; 41.3 uM lipid with R848, FIG. 11) was “robustly induced IL-113 secretion”. For the same compound, the IL-1β secretion ([1]; 24 hours, lipid (equimolar, in 0.5% KP407) with R848, FIG. 1B) was “IL-1β was secreted”, the IL-1β secretion ([1]; 24 hours, lipid in 4% KP407 with R848, FIG. 2B) was “induced a detectable amount of IL-1β” and the solubility [2] was “can be dissolved in ethanol, methanol, or chloroform”.
In the case of CCCCCCCCCCCCCCCCCCCCCCOC[C@@H](O)COP(=O)([O-])OCC[N+](C)(C)C [Compound 1, 1-docosyl-sn-glycerol-3-phosphocholine], the “hyperactivation of human dendritic cells” value ([1]; 41.25 μM lipid with R848 (Compound 1 also 20.6 μM)) is reported as “hyperactivated dendritic cells”, the IL-1β secretion ([1]; 20.6 μM lipid, FIG. 20) is reported as “induced IL-1β secretion that was dependent upon R848 stimulation and the NLRP3 inflammasome” and the IL-1β secretion [1, 8] is reported as “significantly increased IL-1β secretion”. For the same compound, the IL-1β secretion ([1]; 24 hours, lipid (equimolar, in 0.5% KP407) with R848, FIG. 1B, listed as DGPC) was “also induced IL-1β secretion; also recorded: induced less IL-1β than 22:0 lyso PC”, the cell viability [3] was greater than 75% and the solubility [2] was “can be dissolved in ethanol, methanol, or chloroform”.
In the case of CCOCc1nc2c(N)nc3ccccc3c2n1CC(C)(C)O [Compound R848, resiquimod, reference compound], the “IL-6 in cell culture supernatant” value ([4]; human moDCs stimulated with R848, FIG. 10) is reported as “greater than 20,000 μg/mL”, the IL-6 secretion ([4]; human moDCs, R848 with vehicle, no hyperactivating lipid, FIG. 16) is reported as “approximately 20,000 μg/mL” and the IL-1β [5] is reported as 288 µg/mL. The “cytokine and chemokine release in the serum” value [6] was “returned to homeostasis (PBS levels) by 24 hours post injection”, the IFNα2 ([7]; donor HD92) was 94 µg/mL and the IFNα2 ([7]; donor HD93) was 82 µg/mL. For the same compound, the IL-12p70 ([7]; donors HD92 and HD93, FIG. 32C) was “at least 100 μg/mL”.
